According to PMC10041537, “Molecular origins of mutational spectra produced by the environmental carcinogen N-nitrosodimethylamine and SN1 chemotherapeutic agents” (NAR Cancer, 2023):

Columns and labels:
[1] = tested on: human induced pluripotent stem cells; set-up: method as in PMID 30982602; conditions: cited from earlier work
[2] = tested on: C57BL/6J gptΔ mouse embryonic fibroblasts (MEFs); assay: Duplex sequencing, high-resolution mutational spectra of MEFs treated with alkylating agents; type: cell-based; conditions: for predominant mutation type of mutational spectrum: doses generating no more than 50% growth inhibition; for cosine similarity of mutational spectra: with each other, with NDMA spectra from WT liver and lung, Mgmt-deficient liver, and COSMIC SBS11
Method: C57BL/6J gptΔ mouse embryonic fibroblasts (MEFs) were established and maintained in high glucose, GlutaMAX DMEM (Gibco) supplemented with 10% FBS (VWR Life Sciences), sodium pyruvate (1 mM, Gibco), penicillin (100 IU) and streptomycin (100 μg/ml) (Corning) as previously described ([40]). […] For growth-inhibition assays, 2.5 × 10^4 cells were seeded in 6-well plates and incubated overnight. Cells were treated with SN1 alkylating agents as follows. TMZ (Sigma-Aldrich): 50, 100 and 200 μM (stock solutions in DMSO (Sigma-Aldrich)) in FBS-free complete media for 24 h. STZ (Sigma-Aldrich): 500, 1000 and 2000 μM (stock solutions in 0.1 M citrate buffer, pH 4.5) in HBSS, pH 7.4 for 6 h. MNU (Sigma-Aldrich): 125, 250 and 500 μM (stock solutions in 0.1 M citrate buffer, pH 4.5) in HBSS, pH 7.4 for 1 h. After the treatments, cells were washed in PBS (Gibco) and cultured in complete media for another 48 h. Cell growth was analyzed by determining percentages of cell numbers from treatment and untreated control groups by Coulter counter. For gpt assays, 4 × 10^5 cells were seeded into 15 cm tissue culture dishes (4 dishes per group) and treated with TMZ, STZ and MNU, as described above, at 60–70% confluence. Viable cells were harvested and washed twice in PBS.
The gptΔ assay as described above was also performed on MEFs derived from the gptΔ mouse (see above) that were treated with the toxicants studied here. For the cell culture studies, genomic DNA from 2 × 10^6 cells per group was prepared using the MegaLong DNA Isolation Kit (G-Biosciences) according to the manufacturer's instructions.
To determine the identity of mutations and the sequence contexts in which they occur, we utilized a form of error-corrected sequencing called duplex sequencing (DS). Previously, we described how DS can be used directly on genomic samples derived from the gptΔ mouse to yield high-resolution mutational spectra in an unbiased (unselected) manner ([49]). Unlike the traditional gptΔ assay, DS evaluates the mutations throughout the entire 6382 bp transgenic region (which contains the gpt gene), without the need for a phenotypic selection. In the present work, 6.4 kb gpt-containing plasmids from gptΔ mouse livers and cell culture were isolated using a Miniprep Kit (Qiagen) following instructions of the manufacturer. Approximately 6 μg of plasmid DNA was diluted in 1× TE buffer-low EDTA, pH 8 (Thermo Scientific), transferred to a microTUBE AFA Fiber Pre-Slit Snap-Cap (Covaris) and sonicated using a Covaris E220 Focused-ultrasonicator. The following program was used to obtain 300–350 bp fragments: peak incident power = 140 W, duty factor = 10%, cycles per burst = 200, treatment time = 80 s, temperature = 4–7°C. DS libraries for gptΔ C57BL/6J mice and MEFs were prepared using the NEBNext Ultra II DNA Library Prep (E7103, NEB) or as described in Chawanthayatham et al. ([49]) and sequenced on a NextSeq500 or NovaSeq 6000 Illumina platform by using a 150 bp paired-end protocol (MIT BioMicro Center). DS libraries for the gptΔ mouse lungs and Mgmt^−/− mice were prepared using an input of 1 μg or 500 ng genomic DNA, respectively, using a TwinStrand Biosciences, Inc. Mouse Mutagenesis Kit according to the manufacturer's protocol. This kit uses probes that hybridize to 20 genomic regions, each 2.4 kb long. The genomic coordinates are provided in Supplementary Table S1. These probes were purposely selected to map in intronic and intergenic regions, to avoid selection bias. The libraries were sequenced on an Illumina NovaSeq 6000 DNA sequencer on an S4 flow cell using a 150 bp paired-end protocol (MIT BioMicro Center).
For each sample, the two fastq files generated by the Illumina sequencer were converted into an unaligned bam file, using Picard Tools. The resulting bam file was processed using UnifiedConsensusMaker.py (version 3.0) as available from the Kennedy Lab at University of Washington (https://github.com/Kennedy-Lab-UW/Duplex-Sequencing). […]

Row | Structure (SMILES) | dominant mutation type of mutational spectrum [1] | sequence context of mutations [2] | predominant mutation type of mutational spectrum [2] | cosine similarity of mutational spectra [2]
1 | Cn1nnc2c(C(N)=O)ncn2c1=O [TMZ, temozolomide] | AT→GC mutations | 5’-PuGN-3’ | GC→AT mutations | > 0.9
2 | CN(N=O)C(=O)NC1C(O)OC(CO)C(O)C1O (centres unmarked) [STZ, streptozotocin] | – | 5’-PuGN-3’ | GC→AT mutations | > 0.9
3 | CN(N=O)C(N)=O [MNU, N-methyl-N-nitrosourea] | AT→GC mutations | 5’-PuGN-3’ | GC→AT mutations | > 0.9
